From patent publication US20130317092A1 (priority 2007, published 2013)
“Also recorded” adds a separate entry of the source.

Columns and labels:
[1] = system: AChE; experiment: AChE catalytic activity (Ellman) in RAW 264.7 cells; assay type: cell-based, murine
[2] = system: AChmiRNA; design: species or system mice; details: mouse
[3] = system: Meg-01 cells; experiment: Scanning electron microscopy of Meg-01 cell surface (megakaryocytic maturation); assay type: cell-based, human; details: 24 hour treatment
[4] = system: c-Myc; experiment: c-Myc immunohistochemistry in Meg-01 cells; assay type: cell-based, human
[5] = system: PKCβII; experiment: PKCβII immunocytochemistry in Meg-01 cells; assay type: cell-based, human; details: 24 hours
[6] = system: Bcl-2; experiment: Bcl-2 immunostaining in Meg-01 cells; assay type: cell-based, human
[7] = system: activated caspase-9; experiment: Activated caspase-9 immunostaining in Meg-01 cells; assay type: cell-based, human
[8] = system: AChmiRNA (miRNA-181a); experiment: AChmiRNA (miRNA-181a) level by real-time RT-PCR in Meg-01 cells; assay type: cell-based, human; details: for level of AChmiRNA: Meg-01 cells treated for 24 hours, agent alone
[9] = system: Meg-01 cells; experiment: Adhesion assay of MEG-01 cells; assay type: cell-based, human; details: 72 hours
[10] = system: Meg-01 cells; experiment: DNA fragmentation by TUNEL assay in Meg-01 cells; assay type: cell-based, human
[11] = system: AChE-S; experiment: AChE-S protein immunocytochemistry in Meg-01 cells; assay type: cell-based, human; details: 24 hours
[12] = system: activated caspase-3; experiment: Activated caspase-3 immunostaining in Meg-01 cells; assay type: cell-based, human; details: 24 hours, agent alone
[13] = system: ASF/SF2; experiment: Splice factor ASF/SF2 in Meg-01 cells; assay type: cell-based, human; details: data not shown
[14] = system: AChE-S mRNA; experiment: AChE-S mRNA level (fluorescent in situ hybridization) in Meg-01 cells; assay type: cell-based, human; details: for AChE-S mRNA level by FISH: agent alone; for AChE-S mRNA level on co-administration with Thapsi: Thapsi 10 nM plus oligo 100 nM
[15] = system: AChE-R mRNA; experiment: AChE-R mRNA level (RT-PCR, fluorescent in situ hybridization) in Meg-01 cells; assay type: cell-based, human; details: for AChE-R mRNA level (RT-PCR): 24 hours; for AChE-R mRNA level by FISH (population distribution): agent alone; for AChE-R mRNA level on co-administration with Thapsi: Thapsi 10 nM plus oligo 100 nM
[16] = system: AChE-R; experiment: AChE-R protein immunocytochemistry in Meg-01 cells; assay type: cell-based, human; details: 24 hours
[17] = system: Meg-01 cells; experiment: Nuclear area measurement of Meg-01 cells; assay type: cell-based, human; details: 24 hours
[18] = system: Meg-01 cells; experiment: Ploidy / DNA content of Meg-01 cells by FACS and propidium iodide; assay type: cell-based, human; details: 72 hours
[19] = system: Murine macrophage RAW 264.7 cells; experiment: Nitric oxide production (nitrite, Griess) by RAW 264.7 macrophages; assay type: cell-based
Description: Murine macrophage RAW 264.7 cells were cultured in 48 well plates (50×10^3 cells per well). The production of NO by these macrophages was examined following various stimuli (6 repetitions for each treatment) at three time intervals (6, 12 and 24 hours) as depicted in FIGS. 27a, 27b and 27c.
Mouse RAW cells, human U937 cells and primary human macrophages were treated for 24 h with 1 μM CpG oligonucleotides or 1 μg/ml bacterial lipopolysaccharide added to standard growth medium
Interleukin 6 expression was assayed by QRT-PCR, nitric oxide was measured by Griess assay and prostaglandin E2 levels were measured by R&D ELISA kit according to manufacturer's instructions.

[20] = system: miRNA181a; experiment: Northern blot of miRNA181a in Meg-01 cells; assay type: cell-based, human; details: in the presence or absence of Thapsi and/or AChmiON
Description: Cultured Meg-01 cells were co-incubated with thapsigargin (10 nM) and synthetic AChmiON (miR-181) (SEQ ID NO:23; at 100 nM) or anti-miR-181 (SEQ ID NO:24 (modified, identical in sequence to SEQ ID NO:2); at 100 nM.

Row | Compound | cell surface morphology (scanning electron microscopy) [3] | staining intensity for PKCβ [5] | immunoreactivity of Bcl-2 [6] | incidence of activated caspase-9 positive cells [7] | level of AChmiRNA [8] | cell adhesion [9] | DNA fragmentation / cell death (TUNEL) [10] | expression of the AChE-S variant (immunohistochemistry) [11] | incidence of activated caspase-3 positive cells [12] | AChE-S mRNA level by FISH [14] | AChE-R mRNA level (RT-PCR) [15] | AChE-R mRNA level by FISH (population distribution) [15] | AChE-R protein level (immunohistochemistry) [16] | nuclear area / nuclei size [17] | ploidy (DNA content) [18] | AChE-S mRNA level on co-administration with Thapsi [14] | AChE-R mRNA level on co-administration with Thapsi [15] | also measured
1 | C=CC[N+](C)(C)c1ccc(CCC(=O)CCc2ccc([N+](C)(C)CC=C)cc2)cc1.[Br-].[Br-] [BW284c51, 1,5-Bis(4-allyldimethylammoniumphenyl)pentan-3-one dibromide] | – | – | – | – | – | – | – | – | – | – | – | – | – | – | – | – | – | AChE activity ([1]; RAW 264.7 cells, 24 hr, LPS 1 μg/ml, BW 284 C51 10 μM (Example 13)): reduced AChE activity; AChE activity ([1]; macrophages (RAW 264.7), 1 micromolar BW284c51, 100 nanomolar CpG 1826): decrease
2 | CN1CC=C(c2ccccc2)CC1 [MPTP, 1-Methyl-4-phenyl-1,2,3,6-tetrahydropyridine] | – | – | – | – | – | – | – | – | – | – | – | – | – | – | – | – | – | AChmiRNA levels in vivo [2]: decreases of AChmiRNA levels
3 | C/C=C(/C)C(=O)O[C@H]1C(C)=C2[C@H]([C@@H]1OC(=O)CCCCCCC)[C@@](C)(OC(C)=O)C[C@H](OC(=O)CCC)[C@@]1(O)[C@H]2OC(=O)[C@@]1(C)O [Thapsi, Thapsigargin] | a very early stage in the formation of demarcation membranes | increased staining intensity for PKCβ | decrease in the immunoreactivity of Bcl-2 | increased the incidence of positive cells for activated caspase-9 immunostaining | induced a decrease in AChmiRNA | increased adhesion of treated cells | no significant changes | decrease of expression of the AChE-S variant | increase in the incidence of activated caspase-3 positive cells | decrease in AChE-S mRNA level | increasing the levels of AChE-R mRNA variant | rightward shift in the population distribution of labeling intensity; also recorded: increase in AChE-R mRNA level | increase also in the protein level | increase in the nuclear area | a bigger fraction of cells became polyploid | – | – | c-myc expression ([4]; agent alone): c-myc increase induced by Thapsi; decrease in the levels of AChmiRNA ([8]; Meg-01 cells, Thapsi treatment (ER-calcium release), real-time RT-PCR): 50%; splice factor ASF/SF2 [13]: induced
4 | AChmiON: fully 2′-O-methylated oligonucleotide with the sequence of human/murine miRNA-181a (modified SEQ ID NO:23; unmodified SEQ ID NO:1) (AACAUUCAACGCUGUCGGUGAGU; all 2'-O-methyl, backbone not given here) | – | – | – | – | – | suppressed this effect | increased incidence of positive cells; also recorded: significantly increased apoptosis | – | – | increased the fraction of cells with high AChE-S levels | – | levels remained unchanged | – | – | – | keeping AChE-S mRNA level above control values | inhibiting the increase in AChE-R mRNA level | speed of the NO response ([19]; RAW 264.7, 6, 12 and 24 hours): slower than the response to LPS or IFN-γ; maximal NO effect relative to the LPS effect ([19]; RAW 264.7, 24 hour post-treatment, AChmiON 100 nM): about 80%; Nitrite concentration reflecting NO production ([19]; RAW 264.7, 24 hours, LPS 1 μg/ml, IFN-γ 4 ng/ml, oligos 100 nM): 38 µM; NO production versus control (in words) ([19]; RAW 264.7 macrophages): significantly up-regulated NO production; Thapsi-induced c-myc increase on co-treatment ([4]; Thapsi plus AChmiON): could not prevent the c-myc increase induced by Thapsi; Thapsi-induced ASF/SF2 on co-treatment ([13]; Thapsi plus AChmiON): suppressed part of this effect
5 | ARP: human AChE-R C-terminal peptide GMQGPAGSGWEEGSGSPPGVTPLFSP (ARP peptide (synthetic)) | induced cell surface modifications | increased staining intensity for PKCβ | decrease in the immunoreactivity of Bcl-2 | increased the incidence of positive cells for activated caspase-9 immunostaining | decreased the level of AChmiRNA | – | no significant changes | decrease of expression of the AChE-S variant | increased the fraction of cells immunopositive for activated caspase-3 | – | increased the level of AChE-R mRNA | rightward shift in the population distribution of labeling intensity | increase also in the protein level | increased | increased ploidy | – | – | –
6 | anti-AChmiRNA: antisense oligonucleotide complementary to AChmiRNA (SEQ ID NO:2; modified SEQ ID NO:24) (ACUCACCGACAGCGUUGAAUGUU; modified, pattern not given here) | – | – | – | – | – | – | normal level of TUNEL staining | – | – | – | – | – | – | – | – | prevented the Thapsigargin-induced suppression of AChE-S mRNA | maintaining the increase in AChE-R mRNA | level of AChmiRNA (miRNA181a) by Northern blot [20]: decreased the level of anti-AChmiRNA; level of AChmiRNA (miRNA181a) by Northern blot ([20]; listed as anti-miR181): reducing the level of miRNA181a in the presence or absence of Thapsi and/or AChmiON
